IC50 data for 51 compounds are collected here from PubChem BioAssay AID743153 (The Scripps Research Institute Molecular Screening Center, 2013).

The source made the active and inactive calls. How the calls were made is not given here.

This assay deals with methionyl-tRNA synthetase (Trypanosoma brucei brucei). Nature of the assay: T. brucei MetRS inhibitors, late-stage follow-up, biochemical, luminescence, dose response, round 1 (AID 743153). As to conditions: recombinant T. brucei MetRS, luminescence (ATP depletion).

`O=C1CC(NCCc2ccccc2)C(=O)N1c1ccc(Br)cc1` (stereo unspecified): the IC50 (in general, the concentration that inhibits the measured activity by half) was > 119 µM (inactive).
The same measure for `CCN(CCc1nc2ccc(C)cc2[nH]1)C(=O)c1ccc2ncccc2c1`: > 119 µM (inactive); for `CC(C)c1nc2ccc(C(=O)N(C)CCc3nc4ccc(F)cc4[nH]3)cc2o1`: > 119 µM (inactive).
For the compound `Cc1cc2cc(C(=O)N3CCCC(c4nc5ccccc5[nH]4)C3)ccc2o1` (stereo unspecified), the IC50 was > 39.5 µM (inactive).
Under `O=C(NCCc1nc2ccccc2[nH]1)c1ccc(Cl)cc1Cl` stands 0.905 µM; under `CCN(CC)C(=O)C(=O)c1cn(CC(=O)N2CCCc3ccccc32)c2ccccc12`, > 119 µM (inactive).
Take `CCN(CC)C(=O)C(=O)c1cn(CC(=O)Nc2cccc(C(F)(F)F)c2)c2ccccc12`: the IC50 is 0.11 µM.
For `Cc1cccc2[nH]c(CCN(C)C(=O)c3cccc(C4CCNC4)c3)nc12` (stereo unspecified), the IC50 was > 119 µM (inactive).
The same measure for `COc1ccc(NC(=O)CSc2nnc3c4cc(C)ccc4n(C)c3n2)cc1`: > 119 µM (inactive); for `CCN(CC)C(=O)C(=O)c1cn(CC(=O)N(CC)c2ccccc2)c2ccccc12`: > 39.5 µM (inactive).
Under `CC(=O)N(CCc1ccccc1)C1CC(=O)N(c2ccc(Br)cc2)C1=O` (stereo unspecified) stands > 39.5 µM (inactive); under `COc1ccccc1NC(=O)CSc1nnc2c(n1)[nH]c1ccc(C)cc12`, “inactive”.
Under `CCN(C(=O)Cn1cc(C(=O)C(=O)N2CCOCC2)c2ccccc21)c1ccccc1` stands > 119 µM (inactive).
As to `O=C(NCCc1nc2ccccc2[nH]1)c1ccc(Cl)c(Cl)c1`, the IC50 is 0.609 µM.
Consider `O=C(NCCc1nc2ccccc2[nH]1)c1c(F)cccc1F`, for which the IC50 was > 119 µM (inactive).
`COCCc1nc2ccc(C(=O)NCCc3nc4ccc(OC)cc4[nH]3)cc2o1`: the IC50 was > 39.5 µM (inactive).
Under `O=C(Cn1cc(C(=O)COc2ccccc2)c2ccccc21)Nc1cccc(C(F)(F)F)c1` stands > 39.5 µM (inactive); under `O=C(Cn1cc(C(=O)C(=O)N2CCCC2)c2ccccc21)Nc1ccccc1`, > 119 µM (inactive); under `COc1ccc(CCN(C(=O)c2cccc(F)c2)C2CC(=O)N(c3ccc(Br)cc3)C2=O)cc1` (stereo unspecified), > 119 µM (inactive).
On to `O=C(Cn1cc(C(=O)C2CC2)c2ccccc21)Nc1cccc(C(F)(F)F)c1`, for which the IC50 result was “inactive”.
`CC1Cc2ccccc2N1C(=O)Cn1cc(C(=O)C(=O)N2CCOCC2)c2ccccc21` (stereo unspecified): the IC50 was > 119 µM (inactive).
Under `O=C(Cn1cc(C(=O)c2ccccc2)c2ccccc21)Nc1cccc(C(F)(F)F)c1` stands 6.8 µM.
Under `CCc1ccc2c(c1)c1nnc(SCC(=O)Nc3ccc4c(c3)OCO4)nc1n2C` stands > 119 µM (inactive); under `O=C(CSC1CC(=O)N(c2cccc(Cl)c2)C1=O)Nc1ccc(Br)cc1` (stereo unspecified), “inactive”.
Regarding `COc1ccccc1NC(=O)Cn1cc(C(=O)C(=O)N2CCOCC2)c2ccccc21`, the IC50 is > 119 µM (inactive).
As to `Cn1c(CCNC(=O)c2ccc(Cl)cc2)nc2ccccc21`, the IC50 is > 39.5 µM (inactive).
For the compound `Cc1cccc(C(=O)NCCc2nc3ccccc3n2CCOc2ccccc2)c1`, the IC50 is > 39.5 µM (inactive).
Turning to `Cc1cccc(NC(=O)C2CC(=O)n3c(nc4ccccc43)N2)c1` (stereo unspecified), the IC50 was > 39.5 µM (inactive).
For the compound `O=C(Cn1cc(C(=O)c2ccco2)c2ccccc21)Nc1cccc(C(F)(F)F)c1`, the IC50 was 1.39 µM.
On to `O=C(NCCc1nc2ccccc2[nH]1)c1ccc(Cl)cc1`, for which the IC50 is 4.86 µM.
The same measure for `O=C(Cn1cc(C(=O)C(=O)N2CCOCC2)c2ccccc21)NCC1CCCO1` (stereo unspecified): > 119 µM (inactive).
Under `O=C(C(=O)N1CCOCC1)c1cn(CC(=O)N2CCCc3ccccc32)c2ccccc12` stands > 13.2 µM (inactive).
The same measure for `COc1cccc(NC(=O)C2CC(=O)n3c(nc4ccccc43)N2)c1` (stereo unspecified): “inactive”; for `CCCCn1c(CCNC(=O)c2ccc(F)cc2)nc2ccccc21`: > 39.5 µM (inactive).
Consider `COc1ccc(NC(=O)C2CC(=O)n3c(nc4ccccc43)N2)cc1` (stereo unspecified), for which the IC50 was > 119 µM (inactive).
On to `O=C(Cn1cc(C(=O)C(=O)N2CCOCC2)c2ccccc21)NCc1ccccc1`, for which the IC50 is > 119 µM (inactive).
Consider `O=C(CSc1nnc2c(n1)[nH]c1ccc(Br)cc12)NCc1ccccc1`, for which the IC50 is 0.626 µM.
Turning to `O=C(Nc1ccc(F)c(Cl)c1)C1CC(=O)n2c(nc3ccccc32)N1` (stereo unspecified), the IC50 was 1.18 µM.
For the compound `CCC(=O)c1cn(CC(=O)Nc2cccc(C(F)(F)F)c2)c2ccccc12`, the IC50 is > 39.5 µM (inactive).
The same measure for `COc1ccc(CCN(C(=S)Nc2ccccc2)C2CC(=O)N(c3ccc(Cl)cc3)C2=O)cc1` (stereo unspecified): 0.321 µM; for `Cc1cccc2[nH]c(C3CCCN(C(=O)c4cccc5cccnc45)C3)nc12` (stereo unspecified): > 39.5 µM (inactive); for `CNC(=S)N(CCc1ccccc1)C1CC(=O)N(c2ccc(Br)cc2)C1=O` (stereo unspecified): 0.192 µM.
On to `CC(=O)N(CCc1ccccc1)C1CC(=O)N(c2ccc(Cl)cc2)C1=O` (stereo unspecified), for which the IC50 was > 39.5 µM (inactive).
Turning to `CCN(CC)C(=O)C(=O)c1cn(CC(=O)Nc2ccccc2OC)c2ccccc12`, the IC50 is > 119 µM (inactive).
Regarding `Cc1ccc(C(=O)NCCc2nc3ccccc3[nH]2)cc1[N+](=O)[O-]`, the IC50 is 2.37 µM.
The same measure for `CCc1ccc2[nH]c3nc(SCC(=O)NCc4cccc(OC)c4)nnc3c2c1`: > 39.5 µM (inactive); for `CCN(CC)C(=O)C(=O)c1cn(CC(=O)Nc2cccc(OC)c2)c2ccccc12`: 1.84 µM; for `Cc1ccc(CNC(=O)CSc2nnc3c(n2)[nH]c2ccc(C)cc23)cc1`: “inactive”.
The same measure for `Cc1ccc(C(=O)NCCc2nc3ccccc3[nH]2)cc1C`: > 13.2 µM (inactive); for `Cc1ccc2[nH]c3nc(SCC(=O)Nc4ccc(C(F)(F)F)cc4)nnc3c2c1`: > 119 µM (inactive).
Regarding `CC(=O)c1cn(CC(=O)Nc2cccc(C(F)(F)F)c2)c2ccccc12`, the IC50 was 6.2 µM.
